Measured values from ChEMBL document CHEMBL1135235, “Structure-activity relationships of oxime neurokinin antagonists: oxime modifications” (Bioorg Med Chem Lett, 2002).
pKi: −log10 of the molar value.

What was measured:
[1] = biological target: T1, Substance-K receptor (Cavia porcellus) (UniProt Q64077); experiment: Inhibitory activity against Tachykinin receptor 2 evaluated as beta-ala-NKA (410) induced bronchospasm inhibition after a oral dose of 10 mpk in guinea pig; assay type: functional
T1 sequence (whole entry): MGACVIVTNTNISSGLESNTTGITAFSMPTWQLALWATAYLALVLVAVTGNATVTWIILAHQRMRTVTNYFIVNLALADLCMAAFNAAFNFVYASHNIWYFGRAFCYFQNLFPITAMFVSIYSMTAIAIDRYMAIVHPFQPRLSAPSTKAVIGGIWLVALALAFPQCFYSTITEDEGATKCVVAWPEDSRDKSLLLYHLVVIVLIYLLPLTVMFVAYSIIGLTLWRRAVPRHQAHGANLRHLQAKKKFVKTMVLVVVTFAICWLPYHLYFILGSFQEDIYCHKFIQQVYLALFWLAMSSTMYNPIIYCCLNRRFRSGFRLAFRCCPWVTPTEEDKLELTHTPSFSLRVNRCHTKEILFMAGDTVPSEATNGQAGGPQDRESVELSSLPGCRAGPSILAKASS

Substance-P receptor = Substance-P receptor (Homo sapiens, UniProt P25103); experiment: Binding affinity against recombinant human tachykinin receptor 1 in CHO cells using [3H]-Sar SP as a radioligand; assay type: cell-based
Chain of Substance-P receptor (P25103 whole entry): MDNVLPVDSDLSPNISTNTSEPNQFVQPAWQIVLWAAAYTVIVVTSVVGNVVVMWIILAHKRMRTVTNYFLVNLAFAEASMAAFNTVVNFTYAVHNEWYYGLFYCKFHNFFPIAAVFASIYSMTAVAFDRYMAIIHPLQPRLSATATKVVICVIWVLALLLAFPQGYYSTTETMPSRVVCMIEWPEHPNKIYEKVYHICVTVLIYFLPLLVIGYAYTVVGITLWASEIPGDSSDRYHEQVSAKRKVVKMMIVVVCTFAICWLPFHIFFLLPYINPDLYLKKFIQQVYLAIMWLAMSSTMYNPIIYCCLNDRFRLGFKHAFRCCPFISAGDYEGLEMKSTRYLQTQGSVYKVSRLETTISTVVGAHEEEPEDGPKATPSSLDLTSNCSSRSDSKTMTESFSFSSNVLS

[2] = Area under curve was determined at a dose 30 mpk administered orally.; assay type: ADME, organism-based; details: rat, in vivo, po, 30 mg/kg
Substance-K receptor = biological target: T2, Substance-K receptor (Homo sapiens, UniProt P21452); experiment: Binding affinity against recombinant human tachykinin receptor 2 in CHO cells using [3H]NKA as a radioligand; assay type: cell-based
T2 sequence (P21452 whole entry): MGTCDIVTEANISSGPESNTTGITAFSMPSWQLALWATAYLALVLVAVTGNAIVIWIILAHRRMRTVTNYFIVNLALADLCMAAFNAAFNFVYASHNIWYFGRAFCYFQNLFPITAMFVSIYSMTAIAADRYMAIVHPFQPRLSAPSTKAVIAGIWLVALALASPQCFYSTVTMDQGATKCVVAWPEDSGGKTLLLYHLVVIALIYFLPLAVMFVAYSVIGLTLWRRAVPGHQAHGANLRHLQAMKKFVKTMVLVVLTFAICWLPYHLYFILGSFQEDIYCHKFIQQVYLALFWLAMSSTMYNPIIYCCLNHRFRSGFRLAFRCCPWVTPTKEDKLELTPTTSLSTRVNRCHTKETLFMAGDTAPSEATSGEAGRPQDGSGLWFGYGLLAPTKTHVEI

Work on `CN(C/C(=N\OCC(=N)NO)C(CCN1CCC(N2CCCCC2=O)CC1)c1ccc(Cl)c(Cl)c1)C(=O)c1cc(Cl)cc(Cl)c1` (centres undefined) yielded an inhibition [1] of 94%, a pKi (Substance-P receptor) of 9.15 and an AUC [2] of 3 µM·h. It also gave a pKi (Substance-K receptor) of 9.15.
